Results on 2 compounds are retold here after patent publication US20260216140A1, “USE OF ERGOTHIONEINE IN PREPARATION OF PRODUCT FOR PREVENTING OR INHIBITING CELL DAMAGE CAUSED BY ACETALDEHYDE” (BLOOMAGE BIOTECHNOLOGY CORPORATION LIMITED, priority 2022, published 2026).

What all share (type): cell-based
In series [1] the test system is CA9-22 cells. Kind of series: MTT cell activity of CA9-22 cells co-cultured with acetaldehyde (cell damage dose finding). The note with it: for Cell activity: 1 day, MTT, T/NT vs untreated = 100%. As for the experimental part:
• Experimental materials: acetaldehyde, DMEM medium. • Experimental sample solutions: 17.7 M acetaldehyde was diluted with DMEM medium to prepare experimental sample solutions with different final concentrations, and the concentrations are shown in Table 2. • Methods: After CA9-22 cells were co-cultured with different experimental sample solutions for 1 day, the experimental sample solutions were removed and MTT was added. After 3 hours, the supernatant was carefully aspirated and dimethyl sulfoxide (DMSO) was added. The absorbance of each well at 550 nm was detected by a microplate reader. The untreated well was used as control, the absorbance of the sample well was defined as T, the absorbance of the untreated well was defined as NT, NT was taken as 100%, and the ratio of T/NT of the sample well was taken as the cell activity.

Series [2] relates to CA9-22 cells. Kind of series: MTT cell activity of CA9-22 cells co-cultured with acetaldehyde plus ergothioneine (inhibition of acetaldehyde cell damage). The conditions noted are these: for Cell activity: 1 day, MTT.
From the text: • Experimental materials: acetaldehyde, ergothioneine and DMEM medium. • Experimental sample solutions: ergothioneine powder and 17.7M acetaldehyde were respectively diluted with DMEM medium, and then the two solutions were mixed in different ratios to prepare experimental sample solutions with different final concentrations, and the concentrations are shown in Table 3. • Methods: After CA9-22 cells were co-cultured with different experimental sample solutions for 1 day, the experimental sample solutions were removed and MTT was added. After 3 hours, the supernatant was carefully aspirated and dimethyl sulfoxide (DMSO) was added. The absorbance of each well at 550 nm was detected by a microplate reader. The untreated wells was used as control, the absorbance of the sample wells was defined as T, the absorbance of the untreated well was defined as NT, NT was taken as 100%, and the ratio of T/NT of the sample well was taken as the cell activity. On the basis of meeting the requirements of significant difference, the greater the cell activity %, the better the effect of inhibiting cell damage caused by acetaldehyde.
Series [3] relates to CA9-22 cells. Nature of the series: MTT cell activity of CA9-22 cells co-cultured with ergothioneine alone (cytotoxicity). The conditions noted are these: for Cell activity: 1 day, MTT, T/NT vs untreated = 100%. As for the experimental part: • Experimental materials: ergothioneine, DMEM medium. • Experimental sample solutions: ergothioneine powder was dissolved in DMEM medium to prepare experimental sample solutions with different final concentrations, and the concentrations are shown in Table 1. • Methods: CA9-22 cells purchased from ATCC were co-cultured with different experimental sample solutions for 1 day, then the experimental sample solutions were removed and MTT was added. After 3 hours, the supernatant was carefully aspirated and dimethyl sulfoxide (DMSO) was added. The absorbance of each well at 550 nm was detected by a microplate reader. The untreated well was used as control, the absorbance of the sample well was defined as T, the absorbance of the untreated well was defined as NT, NT was taken as 100%, and the ratio of T/NT of the sample well was taken as the cell activity.

Each structure is given as a SMILES string. Where a name gives a salt, the structure may show the parent alone.

Take `CC=O` [Acetaldehyde, acetaldehyde]: the Cell activity with CA9-22 cells [1] (acetaldehyde 0.0001M) is recorded as 96%; in the series with CA9-22 cells [1] (acetaldehyde 0.001M) it was 93%; with CA9-22 cells [1] (acetaldehyde 0.005M) it was 93%; with CA9-22 cells [1] (acetaldehyde 0.01M) it was 89%; in the series with CA9-22 cells [1] (acetaldehyde 0.02M) it was 70%; with CA9-22 cells [2] (acetaldehyde 0.02 M alone, no ergothioneine (sample 2)) it was 70%. Besides, the Cell activity in the series with CA9-22 cells [2] (acetaldehyde 0.02 M alone, no ergothioneine (sample 2), listed as acetaldehyde) came to 70%. For the same compound, the “Cell damage after treating cells” value in the series with CA9-22 cells [1] (different concentrations of acetaldehyde, more obvious with increasing concentration) was “will cause cell damage”.

With `C[N+](C)(C)[C@@H](Cc1c[nH]c(=S)[nH]1)C(=O)[O-]` [Ergothioneine, 2-mercaptohistidine trimethyl internal salt], in the series on CA9-22 cells [3] (0.1-12.5 μM, test conditions of Example 1), the Cytotoxicity result is recorded as “no cytotoxicity”. The Cell activity in the series with CA9-22 cells [3] (ergothioneine 0.1 μM) worked out at 101%; in the series on CA9-22 cells [3] (ergothioneine 0.5 μM), 100%; with CA9-22 cells [3] (ergothioneine 2.5 μM), 107%; in the series with CA9-22 cells [3] (ergothioneine 12.5 μM), 106%; in the series on CA9-22 cells [2] (acetaldehyde 0.02 M + ergothioneine 0.01 μM (sample 3)) it was 71%; with CA9-22 cells [2] (acetaldehyde 0.02 M + ergothioneine 0.05 μM (sample 4)) it was 76%. For the same compound, the Cell activity was 81% with CA9-22 cells [2] (acetaldehyde 0.02 M + ergothioneine 0.1 μM (sample 5)), 83% with CA9-22 cells [2] (acetaldehyde 0.02 M + ergothioneine 0.5 μM (sample 6)), 83% with CA9-22 cells [2] (acetaldehyde 0.02 M + ergothioneine 2.5 μM (sample 7)) and 85% with CA9-22 cells [2] (acetaldehyde 0.02 M + ergothioneine 12.5 μM (sample 8)). Further, the “Effect on cell damage caused by acetaldehyde” value in the series on CA9-22 cells [2] (acetaldehyde 0.02 M, ergothioneine added) is recorded as “can reduce the cell damage caused by acetaldehyde”.
